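Compound exposure: 48 hours, 5 concentrations, 96-well plates. TGI is the concentration that stops growth completely.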
Legend:
Assay in all cases: NCI anticancer screen, dose series, 48 h
SW-620 colon = system: SW-620 colon
HS 578T breast = system: HS 578T breast
UO-31 renal = system: UO-31 renal
U251 CNS = system: U251 CNS
HCT-116 colon = system: HCT-116 colon
K-562 leukemia = system: K-562 leukemia
MDA-MB-435 = system: MDA-MB-435
SK-MEL-28 melanoma = system: SK-MEL-28 melanoma
PC-3 prostate = system: PC-3 prostate
HOP-62 NSCLC = system: HOP-62 NSCLC
SK-MEL-2 melanoma = system: SK-MEL-2 melanoma
HOP-92 NSCLC = system: HOP-92 NSCLC
SNB-75 CNS = system: SNB-75 CNS
OVCAR-5 ovarian = system: OVCAR-5 ovarian
UACC-257 melanoma = system: UACC-257 melanoma
NCI-H460 lung = system: NCI-H460 lung
RXF 393 renal = system: RXF 393 renal
A498 renal = system: A498 renal
SF-539 CNS = system: SF-539 CNS
KM12 colon = system: KM12 colon
UACC-62 melanoma = system: UACC-62 melanoma
DU-145 prostate = system: DU-145 prostate
SNB-19 CNS = system: SNB-19 CNS
T-47D breast = system: T-47D breast
786-0 renal = system: 786-0 renal
HCT-15 colon = system: HCT-15 colon
EKVX NSCLC = system: EKVX NSCLC
OVCAR-8 ovarian = system: OVCAR-8 ovarian
OVCAR-4 ovarian = system: OVCAR-4 ovarian
NCI-H23 lung = system: NCI-H23 lung
NCI-H522 lung = system: NCI-H522 lung
HT29 colon = system: HT29 colon
MALME-3M melanoma = system: MALME-3M melanoma
MOLT-4 leukemia = system: MOLT-4 leukemia
SK-MEL-5 melanoma = system: SK-MEL-5 melanoma
SN12C renal = system: SN12C renal
MDA-MB-231 breast = system: MDA-MB-231 breast
HL-60(TB) leukemia = system: HL-60(TB) leukemia
NCI-H226 lung = system: NCI-H226 lung
CAKI-1 renal = system: CAKI-1 renal
CCRF-CEM leukemia = system: CCRF-CEM leukemia
SF-295 CNS = system: SF-295 CNS
SR leukemia = system: SR leukemia
LOX IMVI melanoma = system: LOX IMVI melanoma
BT-549 breast = system: BT-549 breast
M14 melanoma = system: M14 melanoma
MDA-N = system: MDA-N
NCI/ADR-RES ovarian = system: NCI/ADR-RES ovarian
A549 NSCLC = system: A549 NSCLC
OVCAR-3 ovarian = system: OVCAR-3 ovarian
RPMI-8226 leukemia = system: RPMI-8226 leukemia
ACHN renal = system: ACHN renal
COLO 205 colon = system: COLO 205 colon
SK-OV-3 ovarian = system: SK-OV-3 ovarian
SF-268 CNS = system: SF-268 CNS
IGROV1 ovarian = system: IGROV1 ovarian
TK-10 renal = system: TK-10 renal

Measured: TGI

O=C(O)/C=C\C(=O)Nc1ccccn1
> 100 µM: SW-620 colon | HS 578T breast | UO-31 renal | U251 CNS | HCT-116 colon | K-562 leukemia | MDA-MB-435 | SK-MEL-28 melanoma | PC-3 prostate | HOP-62 NSCLC | SK-MEL-2 melanoma | HOP-92 NSCLC | SNB-75 CNS | OVCAR-5 ovarian | UACC-257 melanoma | NCI-H460 lung | RXF 393 renal | A498 renal | SF-539 CNS | KM12 colon | UACC-62 melanoma | DU-145 prostate | SNB-19 CNS | T-47D breast | 786-0 renal | HCT-15 colon | EKVX NSCLC | OVCAR-8 ovarian | OVCAR-4 ovarian | NCI-H23 lung | NCI-H522 lung | HT29 colon | MALME-3M melanoma | MOLT-4 leukemia | SK-MEL-5 melanoma | SN12C renal | MDA-MB-231 breast | HL-60(TB) leukemia | NCI-H226 lung | CAKI-1 renal | CCRF-CEM leukemia | SF-295 CNS | SR leukemia | LOX IMVI melanoma | BT-549 breast | M14 melanoma | MDA-N | NCI/ADR-RES ovarian | A549 NSCLC | OVCAR-3 ovarian | RPMI-8226 leukemia | ACHN renal | COLO 205 colon | SK-OV-3 ovarian | SF-268 CNS | IGROV1 ovarian

CC1(C)CC2(C)CC1CC2(O)c1ccccc1 (configuration not stated)
> 100 µM: SW-620 colon | HS 578T breast | UO-31 renal | U251 CNS | HCT-116 colon | K-562 leukemia | MDA-MB-435 | SK-MEL-28 melanoma | PC-3 prostate | HOP-62 NSCLC | HOP-92 NSCLC | SNB-75 CNS | OVCAR-5 ovarian | UACC-257 melanoma | NCI-H460 lung | RXF 393 renal | A498 renal | SF-539 CNS | KM12 colon | UACC-62 melanoma | DU-145 prostate | SNB-19 CNS | T-47D breast | 786-0 renal | OVCAR-8 ovarian | OVCAR-4 ovarian | NCI-H23 lung | NCI-H522 lung | HT29 colon | MALME-3M melanoma | MOLT-4 leukemia | SK-MEL-5 melanoma | SN12C renal | MDA-MB-231 breast | HL-60(TB) leukemia | NCI-H226 lung | CAKI-1 renal | CCRF-CEM leukemia | SF-295 CNS | SR leukemia | TK-10 renal | BT-549 breast | M14 melanoma | MDA-N | A549 NSCLC | OVCAR-3 ovarian | ACHN renal | COLO 205 colon | SK-OV-3 ovarian | SF-268 CNS | IGROV1 ovarian

Source: PubChem BioAssay (NCI)
